The source of these data is US10035801B2, “Pyrazolo compounds and uses thereof” (CONSTELLATION PHARMACEUTICALS, INC., priority 2013, dated 2018).

In general, IC50 refers to the midpoint of a concentration-inhibition curve.

The assay addresses T1, KDM5A (Homo sapiens, UniProt P29375).
T1 construct: Full length KDM5A enzyme was expressed and purified inhouse; made in house
Nature of the assay: KDM5 enzyme assay, KDM5A HTRF (Example 463). In kind it is biochemical. In general terms: Time-resolved FRET reads energy transfer from a long-lived donor to a nearby acceptor.

The mark [1] stands for this setting: compounds of Examples 1-432, read-out: Example 463 Assay KDM5A HTRF IC50.

Read-outs that look alike come from different tables or passages of the source.

T1 sequence (P29375 whole entry): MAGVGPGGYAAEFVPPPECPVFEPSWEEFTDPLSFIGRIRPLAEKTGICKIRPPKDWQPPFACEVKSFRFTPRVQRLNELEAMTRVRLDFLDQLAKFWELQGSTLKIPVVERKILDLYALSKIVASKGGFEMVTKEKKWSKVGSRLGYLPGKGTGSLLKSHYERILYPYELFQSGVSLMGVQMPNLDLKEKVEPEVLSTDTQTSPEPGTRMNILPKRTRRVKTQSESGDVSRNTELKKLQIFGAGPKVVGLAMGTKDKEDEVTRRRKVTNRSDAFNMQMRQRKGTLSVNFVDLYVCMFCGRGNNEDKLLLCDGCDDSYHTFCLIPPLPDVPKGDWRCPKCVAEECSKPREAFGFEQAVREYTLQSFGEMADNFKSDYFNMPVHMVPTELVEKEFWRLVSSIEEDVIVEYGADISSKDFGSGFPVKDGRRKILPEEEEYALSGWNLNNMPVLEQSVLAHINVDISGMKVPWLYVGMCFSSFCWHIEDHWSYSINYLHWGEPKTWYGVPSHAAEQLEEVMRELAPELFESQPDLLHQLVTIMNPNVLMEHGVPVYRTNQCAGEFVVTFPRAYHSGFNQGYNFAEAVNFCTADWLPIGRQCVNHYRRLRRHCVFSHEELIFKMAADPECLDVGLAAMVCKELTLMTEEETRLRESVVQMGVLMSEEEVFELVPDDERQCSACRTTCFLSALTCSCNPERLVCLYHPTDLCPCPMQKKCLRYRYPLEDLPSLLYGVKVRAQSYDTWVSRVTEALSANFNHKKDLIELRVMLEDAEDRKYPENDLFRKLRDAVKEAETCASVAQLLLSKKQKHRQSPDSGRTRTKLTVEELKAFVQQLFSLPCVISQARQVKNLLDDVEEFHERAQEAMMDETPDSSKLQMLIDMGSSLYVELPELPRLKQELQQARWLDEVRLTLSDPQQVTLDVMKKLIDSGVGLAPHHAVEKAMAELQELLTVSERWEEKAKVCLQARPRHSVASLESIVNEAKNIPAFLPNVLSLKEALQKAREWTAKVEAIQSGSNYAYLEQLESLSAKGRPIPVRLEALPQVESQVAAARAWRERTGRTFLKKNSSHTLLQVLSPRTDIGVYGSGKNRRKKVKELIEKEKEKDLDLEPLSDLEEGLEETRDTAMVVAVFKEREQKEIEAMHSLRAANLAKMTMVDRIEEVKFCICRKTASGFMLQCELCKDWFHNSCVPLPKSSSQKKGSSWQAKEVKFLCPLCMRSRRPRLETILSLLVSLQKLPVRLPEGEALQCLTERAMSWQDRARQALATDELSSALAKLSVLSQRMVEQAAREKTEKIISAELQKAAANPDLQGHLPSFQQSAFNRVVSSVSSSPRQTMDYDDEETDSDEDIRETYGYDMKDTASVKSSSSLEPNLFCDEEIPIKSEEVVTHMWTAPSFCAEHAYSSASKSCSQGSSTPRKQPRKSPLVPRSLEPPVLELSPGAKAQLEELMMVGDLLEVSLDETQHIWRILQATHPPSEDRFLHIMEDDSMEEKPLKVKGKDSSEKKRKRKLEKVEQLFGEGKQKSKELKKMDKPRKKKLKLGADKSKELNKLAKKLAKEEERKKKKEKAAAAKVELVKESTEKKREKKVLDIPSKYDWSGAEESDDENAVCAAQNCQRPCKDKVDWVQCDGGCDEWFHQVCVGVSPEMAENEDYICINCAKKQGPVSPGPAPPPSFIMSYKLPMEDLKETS
Description: Full length KDM5A enzyme was expressed and purified inhouse. Biotin-H3K4me3 peptide was purchased from New England Biolabs. HTRF reagents (containing Eu-labeled H3K4me1-2 antibody, and streptavidin-XL665) were purchased from Cis-Bio International. Plates were read on an Envision multi-label plate reader Perkin Elmer).
The HTRF assay mixture contained 2 nM full length KDM5A enzyme, 100 nM H3K4Me3 peptide substrate, 1 uM 2-OG, 100 uM Fe^2+, 500 uM ascorbate. 50 mM HEPES pH 7.0 buffer, 0.01% Triton-X 100, 2 mM DTT. […] The plates were incubated at room temperature for 60 minutes and then read in the Envision plate reader.

On to `CC(C)c1c(-c2ccn(-c3ccccc3)n2)[nH]c2c(C#N)cnn2c1=O` [Example 51], for which the IC50 under setting [1] is 8.3 nM. `CC(C)c1c(-c2ccc(C3CC3)o2)[nH]c2c(C#N)cnn2c1=O` [Example 52]: the IC50 under setting [1] was found to be 5.8 nM. Take `Cc1occc1-c1[nH]c2c(C#N)cnn2c(=O)c1C(C)C` [Example 53]: under setting [1], the IC50 was 17 nM.

Turning to `CC(C)c1c(-c2cnn(-c3ccccc3)c2)[nH]c2c(C#N)cnn2c1=O` [Example 54], the 50% inhibitory concentration (IC50) under setting [1] came out at 6 nM. For the compound `CCn1cc(-c2[nH]c3c(C#N)cnn3c(=O)c2C(C)C)cn1` [Example 55], under setting [1], the concentration for half-maximal inhibition (IC50) was 11 nM. For the compound `CC(C)c1c(-c2ccc(=O)n(C)c2)[nH]c2c(C#N)cnn2c1=O` [Example 56], the 50% inhibitory concentration (IC50) under setting [1] was found to be 16 nM. On the same count and under the same terms, under `CCc1c(-c2ccco2)[nH]c2c(C#N)cnn2c1=O` [Example 57] stands 5.7 nM; under `CC(C)c1c(-c2cc(C3CC3)co2)[nH]c2c(C#N)cnn2c1=O` [Example 58], 7.3 nM. Same read-out and setting: under `CC(C)c1c(-c2ccc(-c3ccccc3)o2)[nH]c2c(C#N)cnn2c1=O` [Example 59] stands 34 nM; under `CC(C)c1c(-c2cnn(C(C)C)c2)[nH]c2c(C#N)cnn2c1=O` [Example 60], 19 nM; under `CC(C)c1c(-c2cncnc2)[nH]c2c(C#N)cnn2c1=O` [Example 61], 10 nM. On the same count and under the same terms, under `Cc1cncc(-c2[nH]c3c(C#N)cnn3c(=O)c2C(C)C)c1` [Example 62] stands 12 nM; under `CC(C)c1c(-c2ccn(C)n2)[nH]c2c(C#N)cnn2c1=O` [Example 63], 15 nM. Consider `CC(C)c1c(-c2ccccc2F)[nH]c2c(C#N)cnn2c1=O` [Example 66], for which the IC50 under setting [1] came out at 14 nM. Same read-out and setting: the figure for `CC(C)c1c(-c2ccc(C#N)cc2)[nH]c2c(C#N)cnn2c1=O` [Example 67] is 10 nM; for `COc1ccc(-c2[nH]c3c(C#N)cnn3c(=O)c2C(C)C)cc1` [Example 68] it is 13 nM.

For the compound `CC(C)c1c(-c2ccc(C(F)(F)F)cc2)[nH]c2c(C#N)cnn2c1=O` [Example 69], under setting [1], the 50% inhibitory concentration (IC50) came out at 21 nM. In the case of `CC(C)c1c(-c2ccc(F)cc2)[nH]c2c(C#N)cnn2c1=O` [Example 70], the IC50 under setting [1] was 7.8 nM. Take `CCc1c(-c2cnn(Cc3ccccc3)c2)[nH]c2c(C#N)cnn2c1=O` [Example 71]: the IC50 under setting [1] was found to be 4.5 nM. The same measure, in the same setting: the figure for `CC(C)c1c(-c2cnn(Cc3ccccc3)c2)[nH]c2c(C#N)cnn2c1=O` [Example 72] is 10 nM; for `CC(C)c1c(-c2cncc(Cl)c2)[nH]c2c(C#N)cnn2c1=O` [Example 73] it is 7.3 nM.

Take `CC(C)c1c(-c2cncc(F)c2)[nH]c2c(C#N)cnn2c1=O` [Example 74]: under setting [1], the IC50 came out at 4 nM. Take `C=C(C)c1[nH]c2c(C#N)cnn2c(=O)c1C(C)C` [Example 75]: under setting [1], the IC50 was determined as 10 nM. For the compound `C=Cc1[nH]c2c(C#N)cnn2c(=O)c1C(C)C` [Example 76], the IC50 under setting [1] came to 6 nM. Same read-out and setting: the figure for `CC(C)c1c(-c2ccnn2C)[nH]c2c(C#N)cnn2c1=O` [Example 77] is 12 nM; for `CC(C)c1c(-c2cc(CO)co2)[nH]c2c(C#N)cnn2c1=O` [Example 78] it is 7.7 nM; for `CC(C)c1c(-c2cccc(C#N)c2)[nH]c2c(C#N)cnn2c1=O` [Example 79] it is 13 nM. Same read-out and setting: under `CC(C)c1c(-c2ccn[nH]2)[nH]c2c(C#N)cnn2c1=O` [Example 80] stands 6.8 nM; under `CC(C)c1c(-c2ccco2)[nH]c2c(C#N)cnn2c1=O` [Example 81], 6.5 nM. Same read-out and setting: the figure for `CC(C)c1c(C2=CCOC2)[nH]c2c(C#N)cnn2c1=O` [Example 82] is 12 nM; for `CC(C)c1c(-c2ccsc2)[nH]c2c(C#N)cnn2c1=O` [Example 83] it is 12 nM; for `CC(C)c1c(-c2cccs2)[nH]c2c(C#N)cnn2c1=O` [Example 84] it is 8.3 nM. Turning to `CC(C)c1c(-c2cnn(C)c2)[nH]c2c(C#N)cnn2c1=O` [Example 85], the IC50 under setting [1] was determined as 12 nM. Turning to `Cc1ccc(-c2[nH]c3c(C#N)cnn3c(=O)c2C(C)C)o1` [Example 86], under setting [1], the IC50 was found to be 4.5 nM. Same read-out and setting: under `CC(C)c1c(-c2ccc(CO)o2)[nH]c2c(C#N)cnn2c1=O` [Example 87] stands 7.5 nM; under `CC(C)c1c(-c2cccc(C(F)(F)F)c2)[nH]c2c(C#N)cnn2c1=O` [Example 88], 14 nM.

With `COc1cccc(-c2[nH]c3c(C#N)cnn3c(=O)c2C(C)C)c1` [Example 89], the IC50 under setting [1] turned out to be 10 nM. As to `CC(C)c1c(-c2cccc(F)c2)[nH]c2c(C#N)cnn2c1=O` [Example 90], under setting [1], the concentration for half-maximal inhibition (IC50) came to 9 nM. On to `CC(C)c1c(-c2cccnc2)[nH]c2c(C#N)cnn2c1=O` [Example 91], for which the concentration for half-maximal inhibition (IC50) stood at 12 nM.

As for `CCc1c(-c2cn[nH]c2)[nH]c2c(C#N)cnn2c1=O` [Example 92], the IC50 under setting [1] amounted to 5.5 nM.

As to `CC(C)c1c(-c2cnn(S(C)(=O)=O)c2)[nH]c2c(C#N)cnn2c1=O` [Example 93], the concentration for half-maximal inhibition (IC50) under setting [1] is 13 nM. Same read-out and setting: the figure for `CC(C)c1c(-c2cnn(C3CCCC3)c2)[nH]c2c(C#N)cnn2c1=O` [Example 94] is 12 nM; for `CC(C)c1c(-c2cnn(Cc3ccsc3)c2)[nH]c2c(C#N)cnn2c1=O` [Example 95] it is 11 nM; for `CC(C)c1c(-c2ccc(Cl)c(C(=O)N3CCOCC3)c2)[nH]c2c(C#N)cnn2c1=O` [Example 96] it is 34 nM. Still for that read-out and setting: under `CC(C)c1c(-c2ccc(C(=O)NC3CCCC3)c(Cl)c2)[nH]c2c(C#N)cnn2c1=O` [Example 97] stands 38 nM. Same read-out and setting: the figure for `CC(C)c1c(-c2cnn(C(C)(C)CO)c2)[nH]c2c(C#N)cnn2c1=O` [Example 98] is 37 nM; for `COc1cccc(Cn2cc(-c3[nH]c4c(C#N)cnn4c(=O)c3C(C)C)cn2)c1` [Example 99] it is 6 nM; for `CC(C)c1c(-c2cnn(Cc3ccncc3)c2)[nH]c2c(C#N)cnn2c1=O` [Example 100] it is 8 nM. Consider `CC(C)c1c(-c2cnn(Cc3ccccc3Cl)c2)[nH]c2c(C#N)cnn2c1=O` [Example 101], for which the IC50 under setting [1] came to 8.5 nM.

In the case of `CC(C)c1c(-c2cnn(Cc3cccc(Oc4ccccc4)c3)c2)[nH]c2c(C#N)cnn2c1=O` [Example 102], the IC50 under setting [1] came to 10 nM.

With `CC(C)c1c(-c2cnn(Cc3ccc(Oc4ccccc4)cc3)c2)[nH]c2c(C#N)cnn2c1=O` [Example 103], the IC50 under setting [1] was 5.5 nM. The same measure, in the same setting: under `CC(C)c1c(-c2cnn(C3CCCCC3)c2)[nH]c2c(C#N)cnn2c1=O` [Example 104] stands 21 nM. Turning to `CC(C)c1c(-c2cnn(C(C)c3ccccc3)c2)[nH]c2c(C#N)cnn2c1=O` (centres unmarked) [Example 105], the IC50 under setting [1] came to 8 nM. The same measure, in the same setting: under `CC(C)c1c(-c2cnn(C3CCC3)c2)[nH]c2c(C#N)cnn2c1=O` [Example 106] stands 18 nM; under `CCC(C)n1cc(-c2[nH]c3c(C#N)cnn3c(=O)c2C(C)C)cn1` (centres unmarked) [Example 107], 19 nM; under `CC(C)c1c(-c2ccc(F)c(C(=O)N3CCCC3)c2)[nH]c2c(C#N)cnn2c1=O` [Example 108], 28 nM. Same read-out and setting: under `CC(C)c1c(-c2ccn(S(=O)(=O)C3CC3)n2)[nH]c2c(C#N)cnn2c1=O` [Example 109] stands 11 nM; under `CC(C)c1c(-c2ccn(C(=O)C3CC3)n2)[nH]c2c(C#N)cnn2c1=O` [Example 110], 7 nM. Regarding `CC(C)c1c(-c2cnn(CCC3CC3)c2)[nH]c2c(C#N)cnn2c1=O` [Example 111], the IC50 under setting [1] is 15 nM.
